In BindingDB's records for patent US9611261 (Amgen, 2017):

Target: Cathepsin D (Homo sapiens, UniProt P07339)
Experiment: In Vitro Enzymatic FRET Assay
Description: Recombinant Cat D was expressed in CHO cells. The assay buffer for CathepsinD is 0.05 M citrate pH 3.5, 10% DMSO final, 5 mM CHAPS. […] The assays are effectively started by the addition of different FRET substrates (20 nM for Cat D) and the combination is incubated for one hour. The FRET assay is terminated with by addition of Tris buffer, which raises the pH to neutrality, and the fluorescence is determined. The FRET substrate is a peptide with commercially available fluorophore and quencher, on opposite sides of the BACE cleavage site. […] Proteolytic cleavage of the FRET substrate releases quenching of fluorescence (Cat D excitation 500 nm and emission 580 nm).

Sequence of Cathepsin D (P07339 65-162 limits assumed): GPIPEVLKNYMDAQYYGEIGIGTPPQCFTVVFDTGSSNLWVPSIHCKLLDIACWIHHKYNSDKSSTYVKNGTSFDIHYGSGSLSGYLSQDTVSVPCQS
Sequence of Cathepsin D (P07339 169-412 limits assumed): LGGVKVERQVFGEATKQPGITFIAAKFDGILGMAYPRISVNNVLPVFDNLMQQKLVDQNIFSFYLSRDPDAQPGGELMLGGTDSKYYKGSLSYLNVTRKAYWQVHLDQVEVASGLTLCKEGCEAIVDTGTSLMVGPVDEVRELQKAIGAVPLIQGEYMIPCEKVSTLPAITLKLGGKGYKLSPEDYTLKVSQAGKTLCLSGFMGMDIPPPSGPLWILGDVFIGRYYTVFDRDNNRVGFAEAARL

Compound	IC50
COc1cc(Cl)cnc1C(=O)Nc1ccc(F)c([C@@]2(CF)N=C(N)O[C@@H]3C[C@@H]32)c1 [US9611261, Example 297]	835 µM
NC1=N[C@@](c2cc(NC(=O)c3cnc(CCC#CC4CC4)cn3)ccc2F)(C(F)F)[C@H]2C[C@H]2O1 [US9611261, Example 411]	360 µM
